Measured values as given in paper PMC7138307 (PLoS ONE, 2020).

What was measured:
MLK2 = target: T1, MLK2 (Mus musculus, UniProt Q66L42); test: Ex vivo KiNativ ATP/ADP probe competition in mouse cortical brain lysates; type: binding; settings: DLKSINILILEAIENHNLADTVLK; Lys2; ATP probe
T1 construct: from tissue; host or cells: mouse cortical brain lysate

CK1d, CK1e = test: as above; type: binding; settings: DVKPDNFLMGLGKK; Lys2; ATP probe
PIP4K2C [1] = target: T2, PIP4K2C (Mus musculus, UniProt Q91XU3); test: as above; type: binding; settings: labeling site ATP
T2 construct: from tissue; host or cells: mouse cortical brain lysate
T2 sequence (Q91XU3 1-421): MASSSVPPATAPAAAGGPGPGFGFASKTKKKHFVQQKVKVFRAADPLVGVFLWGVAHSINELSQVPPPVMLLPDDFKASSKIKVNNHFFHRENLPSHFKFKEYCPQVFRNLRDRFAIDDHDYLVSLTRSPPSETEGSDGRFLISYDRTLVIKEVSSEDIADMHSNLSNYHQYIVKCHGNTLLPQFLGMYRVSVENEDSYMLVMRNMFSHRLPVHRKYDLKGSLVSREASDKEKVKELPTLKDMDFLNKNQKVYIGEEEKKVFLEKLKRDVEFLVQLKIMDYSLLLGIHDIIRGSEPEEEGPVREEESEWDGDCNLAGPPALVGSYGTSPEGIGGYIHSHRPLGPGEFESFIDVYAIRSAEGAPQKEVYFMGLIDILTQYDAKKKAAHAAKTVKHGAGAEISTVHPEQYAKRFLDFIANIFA

PIP4K2C [2] = target: T2, PIP4K2C; test: In vivo target engagement, KiNativ ADP probe, mouse brain lysates; settings: 75 mg/kg I.P., one hour, peptide TLVIKEVSSEDIADMHSNLSNYHQYIVK, ATP site
Source text: (§1) To determine both in vivo target engagement and identify any potential off-target kinases inhibited by BIIB-TTBKi, we used a combination of desthiobiotin-ATP/ADP probes to covalently bind and biotinylate the conserved lysine residues at the active site of protein kinases (ActivX-KiNativ; Kyorin Pharmaceuticals, Ltd, Tokyo Japan). […] Lysates were trypsin digested and desthiobiotinylated peptides were captured on streptavidin beads. A list of 269 unique peptides were quantified through LC-MS/MS parallel reaction monitoring method. Target engagement was calculated as the percentage of peptide signal lost after addition of BIIB-TTBKi when compared to the vehicle treated lysate. Using the ADP probe, we were able to detect a total of 150 kinases in the mouse cortical brain lysates (Fig 5A).
(§2) Mice were euthanized one hour following injection and homogenized brain lysates were labeled with Desthiobiotin-ADP-acyl phosphate probe (ADP probe). Desthiobiotinylated peptides were captured on streptavidin beads and peptides were quantified through LC-MS/MS parallel reaction monitoring method. Target engagement was calculated as the percentage of peptide signal lost when compared to the vehicle treated lysate. (A) Visualization of the off-target effects of BIIB-TTBKi at 75mg/kg. The ADP probe labelled around 150 unique kinases in mouse cortical brain lysates.

TTBK1, TTBK2 = test: as above; settings: 75 mg/kg I.P., one hour, peptide DIKPSNFAMGR, Lys2
Source text: as §1, §2

PIP5K3 = target: T3, PIP5K3 (Mus musculus, UniProt Q9Z1T6); test: as above; settings: 75 mg/kg I.P., one hour, peptide GGKSGAAFYATEDDRFILK, ATP site
T3 construct: homogenized brain lysates were labeled with Desthiobiotin-ADP-acyl phosphate probe; from tissue; host or cells: mouse cortical brain lysate
T3 sequence (Q9Z1T6 whole entry): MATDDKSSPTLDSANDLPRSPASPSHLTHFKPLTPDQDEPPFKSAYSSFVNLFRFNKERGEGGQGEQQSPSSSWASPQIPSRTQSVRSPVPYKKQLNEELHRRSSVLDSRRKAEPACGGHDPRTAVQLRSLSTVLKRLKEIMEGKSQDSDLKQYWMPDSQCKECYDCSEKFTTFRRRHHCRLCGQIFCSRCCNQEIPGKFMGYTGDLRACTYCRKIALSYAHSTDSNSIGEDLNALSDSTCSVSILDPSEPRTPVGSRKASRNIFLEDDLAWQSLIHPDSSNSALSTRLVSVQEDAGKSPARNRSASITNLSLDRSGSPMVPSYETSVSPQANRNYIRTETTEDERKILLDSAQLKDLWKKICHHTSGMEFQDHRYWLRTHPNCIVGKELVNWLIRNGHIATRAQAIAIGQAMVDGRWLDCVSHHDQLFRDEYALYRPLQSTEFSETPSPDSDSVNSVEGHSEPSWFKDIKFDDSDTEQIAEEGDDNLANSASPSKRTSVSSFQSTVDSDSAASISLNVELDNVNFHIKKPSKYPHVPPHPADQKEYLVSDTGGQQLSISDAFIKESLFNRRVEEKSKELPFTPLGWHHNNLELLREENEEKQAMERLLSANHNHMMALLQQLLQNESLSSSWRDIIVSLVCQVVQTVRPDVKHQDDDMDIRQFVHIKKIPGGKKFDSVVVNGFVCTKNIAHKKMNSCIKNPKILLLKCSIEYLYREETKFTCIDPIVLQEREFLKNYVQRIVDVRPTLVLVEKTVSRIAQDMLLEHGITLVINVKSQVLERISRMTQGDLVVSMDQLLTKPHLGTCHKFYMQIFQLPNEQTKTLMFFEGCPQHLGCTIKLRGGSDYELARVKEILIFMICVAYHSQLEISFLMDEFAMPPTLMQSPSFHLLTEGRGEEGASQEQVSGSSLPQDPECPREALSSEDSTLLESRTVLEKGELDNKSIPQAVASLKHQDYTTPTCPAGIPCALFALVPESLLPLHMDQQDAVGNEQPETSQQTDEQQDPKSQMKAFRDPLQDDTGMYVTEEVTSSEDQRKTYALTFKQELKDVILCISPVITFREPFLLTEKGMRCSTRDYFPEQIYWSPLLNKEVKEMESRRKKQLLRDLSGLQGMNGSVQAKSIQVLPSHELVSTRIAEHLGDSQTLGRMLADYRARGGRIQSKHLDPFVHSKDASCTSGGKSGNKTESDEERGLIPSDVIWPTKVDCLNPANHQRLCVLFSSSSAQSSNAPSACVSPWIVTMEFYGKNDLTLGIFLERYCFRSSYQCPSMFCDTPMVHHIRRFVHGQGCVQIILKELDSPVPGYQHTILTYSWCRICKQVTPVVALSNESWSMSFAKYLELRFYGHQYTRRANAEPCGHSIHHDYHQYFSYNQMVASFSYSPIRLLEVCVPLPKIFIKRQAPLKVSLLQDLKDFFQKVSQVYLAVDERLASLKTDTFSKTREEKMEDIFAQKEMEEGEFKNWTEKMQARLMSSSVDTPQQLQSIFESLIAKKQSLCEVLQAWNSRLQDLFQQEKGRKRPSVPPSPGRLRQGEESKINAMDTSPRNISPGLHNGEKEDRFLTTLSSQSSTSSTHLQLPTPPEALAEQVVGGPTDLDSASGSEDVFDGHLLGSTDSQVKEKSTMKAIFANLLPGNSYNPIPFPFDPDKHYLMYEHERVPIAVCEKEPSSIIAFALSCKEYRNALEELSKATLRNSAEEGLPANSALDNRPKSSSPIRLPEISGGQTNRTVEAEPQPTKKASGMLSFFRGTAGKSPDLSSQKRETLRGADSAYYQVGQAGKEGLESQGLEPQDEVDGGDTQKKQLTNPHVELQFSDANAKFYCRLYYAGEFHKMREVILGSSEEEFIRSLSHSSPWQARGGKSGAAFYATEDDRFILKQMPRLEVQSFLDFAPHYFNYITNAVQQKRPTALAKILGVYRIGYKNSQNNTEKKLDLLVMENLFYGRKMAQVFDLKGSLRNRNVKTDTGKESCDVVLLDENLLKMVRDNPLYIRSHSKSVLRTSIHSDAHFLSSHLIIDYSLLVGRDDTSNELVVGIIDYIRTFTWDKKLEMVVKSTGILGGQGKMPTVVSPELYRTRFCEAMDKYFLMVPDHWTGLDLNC
Source text: as §1, §2

FES = target: T4, FES (Mus musculus, UniProt P16879); test: as above; settings: 75 mg/kg I.P., one hour, peptide LRADNTPVAVKSCR, Lys1
T4 construct: homogenized brain lysates were labeled with Desthiobiotin-ADP-acyl phosphate probe; from tissue; host or cells: mouse cortical brain lysate
T4 sequence (P16879 whole entry): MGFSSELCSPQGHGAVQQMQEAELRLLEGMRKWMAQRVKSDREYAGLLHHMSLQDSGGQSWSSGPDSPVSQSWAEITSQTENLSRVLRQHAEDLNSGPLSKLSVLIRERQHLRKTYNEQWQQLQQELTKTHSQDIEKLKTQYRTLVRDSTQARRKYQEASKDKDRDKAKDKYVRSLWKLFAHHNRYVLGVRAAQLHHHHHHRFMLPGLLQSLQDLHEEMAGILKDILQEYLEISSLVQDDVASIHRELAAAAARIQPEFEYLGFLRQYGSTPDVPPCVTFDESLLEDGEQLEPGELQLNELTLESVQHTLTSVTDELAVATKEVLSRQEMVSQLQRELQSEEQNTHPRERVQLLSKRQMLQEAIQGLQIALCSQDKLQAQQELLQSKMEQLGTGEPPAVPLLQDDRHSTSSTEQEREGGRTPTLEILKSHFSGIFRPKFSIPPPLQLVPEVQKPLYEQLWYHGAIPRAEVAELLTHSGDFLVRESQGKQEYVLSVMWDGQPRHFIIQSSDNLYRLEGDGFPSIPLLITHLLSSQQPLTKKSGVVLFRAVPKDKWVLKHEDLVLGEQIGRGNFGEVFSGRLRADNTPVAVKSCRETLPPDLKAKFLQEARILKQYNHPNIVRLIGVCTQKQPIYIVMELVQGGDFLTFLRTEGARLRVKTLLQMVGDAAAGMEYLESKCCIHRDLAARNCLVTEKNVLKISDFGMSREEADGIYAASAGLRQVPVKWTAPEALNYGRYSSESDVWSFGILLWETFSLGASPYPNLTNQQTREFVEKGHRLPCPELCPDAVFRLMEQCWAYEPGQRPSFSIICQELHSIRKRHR
Source text: as §1, §2

TAO2 = target: T5, TAO2 (Mus musculus, UniProt Q6ZQ29); test: Ex vivo KiNativ ATP/ADP probe competition in mouse cortical brain lysates; type: binding
T5 construct: from tissue; host or cells: mouse cortical brain lysate
T5 sequence (Q6ZQ29 1-1240): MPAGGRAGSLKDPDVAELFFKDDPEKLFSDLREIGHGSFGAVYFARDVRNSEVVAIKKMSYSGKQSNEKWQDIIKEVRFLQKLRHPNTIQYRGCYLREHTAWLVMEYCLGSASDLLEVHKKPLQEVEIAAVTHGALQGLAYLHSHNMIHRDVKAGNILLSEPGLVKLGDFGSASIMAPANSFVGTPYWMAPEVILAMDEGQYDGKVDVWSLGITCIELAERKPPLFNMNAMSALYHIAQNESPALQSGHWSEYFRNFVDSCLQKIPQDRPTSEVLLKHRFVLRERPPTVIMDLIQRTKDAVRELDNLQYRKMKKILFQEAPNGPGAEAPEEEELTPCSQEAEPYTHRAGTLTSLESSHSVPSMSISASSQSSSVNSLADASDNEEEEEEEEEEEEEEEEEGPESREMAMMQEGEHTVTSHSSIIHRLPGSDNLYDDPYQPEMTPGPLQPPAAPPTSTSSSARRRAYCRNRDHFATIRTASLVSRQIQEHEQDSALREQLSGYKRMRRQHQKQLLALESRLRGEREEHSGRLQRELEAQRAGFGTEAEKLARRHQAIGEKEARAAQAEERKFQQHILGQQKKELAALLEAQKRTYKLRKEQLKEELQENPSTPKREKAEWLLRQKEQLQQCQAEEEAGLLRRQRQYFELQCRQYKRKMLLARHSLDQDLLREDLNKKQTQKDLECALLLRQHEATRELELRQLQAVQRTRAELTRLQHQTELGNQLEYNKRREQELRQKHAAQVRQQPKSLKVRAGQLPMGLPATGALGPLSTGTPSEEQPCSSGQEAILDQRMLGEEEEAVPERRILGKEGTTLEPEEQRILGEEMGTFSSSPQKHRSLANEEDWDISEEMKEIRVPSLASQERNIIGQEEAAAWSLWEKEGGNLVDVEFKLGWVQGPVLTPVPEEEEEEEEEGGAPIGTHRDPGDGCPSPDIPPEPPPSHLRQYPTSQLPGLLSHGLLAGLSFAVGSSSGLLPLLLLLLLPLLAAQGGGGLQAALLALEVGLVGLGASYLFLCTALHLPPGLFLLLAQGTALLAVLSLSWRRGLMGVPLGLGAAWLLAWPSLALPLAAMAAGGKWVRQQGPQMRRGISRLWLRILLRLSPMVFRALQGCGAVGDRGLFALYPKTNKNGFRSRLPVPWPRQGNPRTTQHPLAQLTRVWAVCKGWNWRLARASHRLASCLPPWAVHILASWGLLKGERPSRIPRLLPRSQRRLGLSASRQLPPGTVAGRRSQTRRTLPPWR

T1 sequence (Q66L42 whole entry): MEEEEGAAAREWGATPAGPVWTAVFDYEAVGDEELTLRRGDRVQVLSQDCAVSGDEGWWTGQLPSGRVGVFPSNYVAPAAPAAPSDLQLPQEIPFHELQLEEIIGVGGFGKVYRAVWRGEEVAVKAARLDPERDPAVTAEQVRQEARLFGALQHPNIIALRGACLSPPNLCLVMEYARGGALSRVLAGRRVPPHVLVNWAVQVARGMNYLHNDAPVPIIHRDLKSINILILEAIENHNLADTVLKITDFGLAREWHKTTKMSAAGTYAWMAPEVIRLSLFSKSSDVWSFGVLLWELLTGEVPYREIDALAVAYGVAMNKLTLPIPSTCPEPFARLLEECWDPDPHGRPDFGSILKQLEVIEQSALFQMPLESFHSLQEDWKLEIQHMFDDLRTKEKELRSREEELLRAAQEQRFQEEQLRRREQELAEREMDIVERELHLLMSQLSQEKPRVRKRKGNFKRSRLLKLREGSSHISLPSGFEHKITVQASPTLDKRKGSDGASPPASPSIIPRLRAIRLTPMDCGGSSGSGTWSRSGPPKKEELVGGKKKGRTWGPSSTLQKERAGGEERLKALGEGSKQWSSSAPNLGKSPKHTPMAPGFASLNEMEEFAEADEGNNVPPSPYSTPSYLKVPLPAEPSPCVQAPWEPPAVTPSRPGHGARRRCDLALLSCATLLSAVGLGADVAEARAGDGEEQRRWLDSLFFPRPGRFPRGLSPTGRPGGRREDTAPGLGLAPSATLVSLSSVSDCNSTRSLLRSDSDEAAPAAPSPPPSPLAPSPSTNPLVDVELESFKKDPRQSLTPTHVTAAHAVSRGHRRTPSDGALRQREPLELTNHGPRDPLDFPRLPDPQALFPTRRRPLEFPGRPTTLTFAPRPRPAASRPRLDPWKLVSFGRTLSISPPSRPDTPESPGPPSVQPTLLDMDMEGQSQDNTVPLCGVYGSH

**Q.** How did the “Percent Inhibition at 1μM” value (MLK2) turn out when `CCC(C)(O)C#Cc1cc2c(ccn2-c2ccnc(N)n2)cn1` (stereo not drawn) [BIIB-TTBK1i] was run?
**A.** Its value is 60.1%.

**Q.** And the “Percent Inhibition at 1μM” value (CK1d, CK1e)?
**A.** The value was 55.5%.

**Q.** What about the “Percent Inhibition at 1μM” value (PIP4K2C [1]; TLVIKEVSSEDIADMHSNLSNYHQYIVK, ADP probe) of the same compound?
**A.** The value was 88.8%.

**Q.** And the “Percent Inhibition at 1μM” value (PIP4K2C [1]; TLVIKEVSSEDIADMHSNLSNYHQYIVK, ATP probe)?
**A.** The value was 76.5%.

**Q.** And the “Percent Inhibition at 1μM” value (PIP4K2C [1]; VKELPTLKDMDFLNK, ATP probe)?
**A.** The value was 67.9%.

**Q.** And the “Percent Inhibition with BIIB-TTBKi at 75mpk” value (from here on “Percent Inhibition … at 75mpk”) (PIP4K2C [2])?
**A.** The value was 86.3%.

**Q.** And the “Percent Inhibition … at 75mpk” value (TTBK1, TTBK2)?
**A.** The value was 82%.

**Q.** And the “Percent Inhibition … at 75mpk” value (PIP5K3)?
**A.** The value was 90%.

**Q.** What about the “Percent Inhibition … at 75mpk” value (FES) of the same compound?
**A.** Its value is 50.6%.

**Q.** And the “Percent Inhibition at 1μM” value (TAO2; DVKAGNILLSEPGLVK, Lys2, ADP probe)?
**A.** The value was 82.6%.

**Q.** What about the “Percent Inhibition at 1μM” value (TAO2; DVKAGNILLSEPGLVK, Lys2, ATP probe) of the same compound?
**A.** Its value is 93.2%.

**Q.** What about the “Percent Inhibition at 1μM” value (TAO2; NSEVVAIKK, Lys1, ADP probe) of the same compound?
**A.** Its value is 86.4%.
